Molecular target: T1, CYP9K1 (Anopheles gambiae, UniProt Q8T633)
T1 sequence (Q8T633 1-531): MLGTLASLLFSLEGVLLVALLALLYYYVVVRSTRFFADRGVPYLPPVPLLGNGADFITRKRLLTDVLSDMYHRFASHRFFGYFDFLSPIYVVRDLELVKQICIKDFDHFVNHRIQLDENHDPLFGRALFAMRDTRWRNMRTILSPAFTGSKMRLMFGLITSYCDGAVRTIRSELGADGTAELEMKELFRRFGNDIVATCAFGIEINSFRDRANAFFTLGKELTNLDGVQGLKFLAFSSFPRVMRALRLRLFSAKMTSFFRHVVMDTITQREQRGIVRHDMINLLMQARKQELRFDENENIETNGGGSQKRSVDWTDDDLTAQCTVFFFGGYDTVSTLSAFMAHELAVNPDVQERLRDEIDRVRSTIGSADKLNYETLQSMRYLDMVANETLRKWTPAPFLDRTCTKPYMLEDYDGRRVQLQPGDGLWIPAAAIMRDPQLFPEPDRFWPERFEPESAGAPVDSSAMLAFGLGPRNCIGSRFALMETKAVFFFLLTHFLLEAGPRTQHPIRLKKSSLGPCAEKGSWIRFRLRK
T1 sequence (Q86QH5 1-679 partner): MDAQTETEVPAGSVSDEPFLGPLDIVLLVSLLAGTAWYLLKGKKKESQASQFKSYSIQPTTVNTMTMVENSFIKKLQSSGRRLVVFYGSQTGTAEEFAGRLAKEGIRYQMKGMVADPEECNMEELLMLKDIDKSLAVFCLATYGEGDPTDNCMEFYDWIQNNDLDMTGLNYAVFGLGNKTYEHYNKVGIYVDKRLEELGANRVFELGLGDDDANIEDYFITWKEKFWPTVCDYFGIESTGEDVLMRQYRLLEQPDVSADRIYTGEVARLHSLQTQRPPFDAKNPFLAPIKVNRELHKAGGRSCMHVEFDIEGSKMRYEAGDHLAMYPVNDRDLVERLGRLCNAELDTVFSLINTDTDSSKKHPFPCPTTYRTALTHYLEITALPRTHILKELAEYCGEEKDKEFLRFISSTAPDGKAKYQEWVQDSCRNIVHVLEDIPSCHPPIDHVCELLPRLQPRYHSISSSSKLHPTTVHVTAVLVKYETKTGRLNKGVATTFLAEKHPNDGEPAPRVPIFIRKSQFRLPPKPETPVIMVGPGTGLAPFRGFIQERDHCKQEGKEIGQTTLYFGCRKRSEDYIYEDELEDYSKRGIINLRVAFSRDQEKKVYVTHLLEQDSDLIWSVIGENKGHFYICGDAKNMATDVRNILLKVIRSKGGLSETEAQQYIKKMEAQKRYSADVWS
T1 sequence (Q86QH4 1-128 partner): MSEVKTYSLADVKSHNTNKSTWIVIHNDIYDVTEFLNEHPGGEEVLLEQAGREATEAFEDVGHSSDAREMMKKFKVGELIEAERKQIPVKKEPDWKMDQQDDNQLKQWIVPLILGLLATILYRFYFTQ
Test: HPLC substrate depletion, Michaelis-Menten fit
Format: biochemical
Conditions: NADPH generating system; AgCPR, AgCytb5; Tris-HCl 0.2 M pH 7.4, 0.25 mM MgCl2, 30 °C; 0.5-150 μM deltamethrin

Structure (SMILES): CC1(C)[C@H](C(=O)O[C@H](C#N)c2cccc(Oc3ccccc3)c2)[C@@H]1C=C(Br)Br [deltamethrin]
- Km: 28.2 µM
